One data set deals with Peronospora parasitica. Kind of data set: Example A: in vivo test on Peronospora parasitica (downy mildew on white cabbage). Particulars: Hyaloperonospora parasitica, 120 h, cabbage plants sprayed 24 hours before inoculation, scored after 5 days, read-out: % Wirkungsgrad. Put shortly:
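Protective spray test: inoculation with 50,000 spores/ml P. parasitica suspension followed 24 h after compound application to cotyledon-stage cabbage (variety Eminence). Plants kept moist at about 20 °C for 5 days and then rated versus controls sprayed without active substance.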

Data set [1] has as its system Botrytis cinerea. The data set can be described thus: Example B: in vivo test on Botrytis cinerea (grey mould on cucumbers). The note with it: cucumber plants sprayed 24 hours before inoculation, scored after 5-7 days, read-out: % Wirkungsgrad. On the procedure: In Vivo Test on Botrytis Cinerea (Grey Mould on Cucumbers) An aqueous suspension of the active substance was prepared by homogenization of a mixture of acetone/Tween/dimethyl sulphoxide and subsequent dilution with water to the desired concentration. Cucumber plants (variety: Vert petit de Paris) are sown in cultivation dishes on a peat-pozzolanic earth substrate (50/50) at 18-20° C. and sprayed at the cotyledon stage Z11 with the aqueous suspension described above. As a control, plants are sprayed with an aqueous solution with no active substance. […] The spores are derived from a 15 day-old culture which are suspended in the following nutrient solution: • 20 g/l gelatine • 50 g/l D-fructose • 2 g/l NH4NO3 • 1 g/l KH2PO4 The inoculated cucumber plants are kept for 5-7 days in a climatic chamber at […] After 5-7 days they are scored in comparison with the control plants.

Another data set has as its system Alternaria brassicae. Kind of data set: Example C: in vivo test on Alternaria brassicae (leaf spot disease on radishes). Particulars: 500 ppm; radish plants sprayed 24 hours before inoculation; scored after 6-7 days. As to the method:
In Vivo Test on Alternaria Brassicae (Leaf Spot Disease on Radishes) An aqueous suspension of the active substance was prepared by homogenization of a mixture of acetone/Tween/dimethyl sulphoxide and subsequent dilution with water to the desired concentration. Radish plants (variety: Pernot) are sown in cultivation dishes on a peat-pozzolanic earth substrate (50/50) at 18-20° C. and sprayed at the cotyledon stage with the aqueous suspension described above. As a control, plants are sprayed with an aqueous solution with no active substance. After 24 hours, the plants are inoculated by spraying with an aqueous suspension of Alternaria brassicae spores (40,000 spores per ml). The spores are derived from a 12 to 13 day-old culture. The inoculated radish plants are incubated for 6-7 days at ca. 18° C. in a humid atmosphere. After 6-7 days they are scored in comparison with the control plants.

The test system of data set [2] is Sphaerotheca fuliginea. The data set can be described thus: Example D: in vivo test on Sphaerotheca fuliginea (powdery mildew on cucumber). The note with it: Podosphaera fuliginea, 288 h, cucumber plants sprayed 24 hours before inoculation, scored after 12 days, read-out: % Wirkungsgrad. Put shortly:
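Scoring took place 12 days after spore inoculation (100,000 spores/ml, at ca. 20/25° C., 60/70% RH) and was made against plants sprayed without active substance. Inoculation followed by 24 hours a spray of water-diluted acetone/Tween/DMSO compound suspension onto Z10 cotyledon-stage cucumbers.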

Data set [3] relates to Mycosphaerella graminicola. Kind of data set: Example G: in vivo test on Mycosphaerella graminicola (wheat leaf blotch disease). The note with it: Zymoseptoria tritici, wheat plants sprayed 24 hours before inoculation, scored after 21 to 28 days, read-out: % Wirkungsgrad. The method, boiled down:
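Scipion wheat at first-leaf stage (10 cm) was sprayed with aqueous active-substance suspension, then inoculated 24 hours later with Mycosphaerella graminicola spores (500,000 spores per ml) from 7 day-old culture. Disease was scored after 21 to 28 days against untreated sprayed controls.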

Another data set relates to Alternaria solani. Kind of data set: Example M: in vivo test on Alternaria solani (leaf blotch disease/tomato/protective). The note with it: 168 h, tomato, protective, 500 ppm active substance, assessed 7 days after inoculation, read-out: % Wirkungsgrad (activity level). The method, boiled down:
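Alternaria solani infection on tomato scored 7 days post-inoculation. Before inoculation, young plants received a protective spray at the stated application dose; formulation was compound mixed with N,N-dimethylformamide and emulsifier, water-diluted.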

The next data set relates to Puccinia recondita. The data set can be described thus: Example F: in vivo test on Puccinia recondita (wheat brown rust). The note with it: 240 h, wheat plants sprayed 24 hours before inoculation, scored after 10 days, read-out: % Wirkungsgrad. As to the method:
In Vivo Test on Puccinia Recondita (Wheat Brown Rust) An aqueous suspension of the active substance was prepared by homogenization of a mixture of acetone/Tween/dimethyl sulphoxide and subsequent dilution with water to the desired concentration. Wheat plants (variety: Scipion) are sown in cultivation dishes on a peat-pozzolanic earth substrate (50/50) at 12° C. and sprayed at the first-leaf stage (10 cm size) with the aqueous suspension described above. As a control, plants are sprayed with an aqueous solution with no active substance. After 24 hours the plants are inoculated by spraying with an aqueous suspension of Puccinia recondita spores (100,000 spores per ml). The spores are derived from a 10 day-old infected wheat crop and are suspended in water with 2.5 ml/l Tween. […] After 10 days they are scored in comparison with the control plants.

The subject of the next data set is Fusarium proliferatum. The data set can be described thus: Example I: production of fumonisin FB1 by Fusarium proliferatum (microtitre plates). Format: cell-based. The note with it: 120 h.
Another data set concerns Fusarium graminearum. Kind of data set: microbe, parasite or virus in culture. Format: cell-based.
The test system of the next data set is Aspergillus parasiticus. The data set can be described thus: microbe, parasite or virus in culture. The note with it: 168 h. Format: cell-based.
The subject of another data set is Plasmopara viticola. The data set can be described thus: Example N: in vivo test on Plasmopara viticola (downy mildew, vine/protective). Particulars: 144 h, vine, protective, assessment 6 days after inoculation, read-out: % Wirkungsgrad. Put shortly:
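Assessment of downy mildew on vines took place 6 days post-inoculation, after 1 day of moist incubation. Before infection, the young plants received a protective spray of compound emulsified with alkylaryl polyglycol ethers and diluted with water to the stated application rate.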

The next data set relates to Venturia inaequalis. Kind of data set: Example O: in vivo test on Venturia inaequalis (apple scab/protective). The note with it: 240 h, protective, assessment 10 days after inoculation, read-out: % Wirkungsgrad. Put shortly:
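Young plants received a preventive spray of compound formulated as an emulsifier-containing aqueous dilution at the given application rate, then were inoculated with apple scab fungus. Disease was scored 10 days post-inoculation.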

Data set [4] relates to Botrytis cinerea. Kind of data set: Example P: in vivo test on Botrytis cinerea (gray mould on bean/protective). The note with it: 48 h, bean, protective, 250 ppm active substance, assessed 2 days after inoculation, read-out: % Wirkungsgrad (activity level). The method, boiled down: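 Infection blotch size on leaves was scored 2 days after placing 2 Botrytis-colonised agar pieces per leaf. Inoculation followed drying of a protective spray applied to young plants at the stated dosage. Spray was prepared by diluting compound with solvent and alkylaryl polyglycol ether emulsifier in water.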

Another data set deals with Pyricularia oryzae. Kind of data set: whole plant or invertebrate. Format: in vivo. The note with it: 120 h, read-out: % Activity level.
In the next data set the test system is Cochliobolus miyabeanus. The data set can be described thus: Example X: in vivo test on Cochliobolus miyabeanus (brown spot disease, rice/protective). The note with it: Bipolaris oryzae, 96 h, read-out: % Activity level.
The test system of data set [5] is Sphaerotheca fuliginea. Kind of data set: Example L: in vivo test on Sphaerotheca fuliginea (powdery mildew on cucumber/protective). The note with it: Podosphaera fuliginea, 168 h, cucumber, protective, assessment 7 days after inoculation, read-out: % Wirkungsgrad. The method, boiled down:
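Young cucumber plants sprayed at stated dosage with compound in DMF/alkylaryl polyglycol ether emulsifier diluted in water; inoculated with S. fuliginea spores one day later. Kept in greenhouse at 70% relative humidity, 23° C; protective activity assessed 7 days after inoculation.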

The mark [6] stands for this setting: LogPA (logP of the stated pure compound or, in a mixture, of the main isomer, 1-substituted 3-aryl-1H-pyrazole).
The mark [7] stands for this setting: Fusarium proliferatum growth, OD 620, 5 days, read-out: % Inhibition des Pilzwachstums bei 50 μM.
Setting [8] is: Fusarium proliferatum, 5 days at 20° C., HPLC-MS/MS, read-out: % Inhibition der FB1 produktion bei 50 μM.

Read-outs that look alike come from different tables or passages of the source.

Take `CC(C)Cn1ncc(-c2ccncc2)c1-c1c(F)cccc1F` [Compound 2]: the pest or weed control at 500 ppm in the data set on Peronospora parasitica is 85%; in the data set on Botrytis cinerea [1] it was 74%; with Sphaerotheca fuliginea [2], 93%; in [3], 98%; in the data set on Alternaria solani, 100%. For the same compound, the “% Activity level” value with Alternaria brassicae was found to be 77%. Moreover, in “physchem” (setting [6]), the chromatographic logP (as a rule, a lipophilicity value derived from retention on a column) turned out to be 1.86.
Regarding `COCC(=O)Nc1cc(-c2cn(C(C)C)nc2-c2ccc(F)cc2)ccn1` [Compound 40], the pest or weed control at 500 ppm with Peronospora parasitica is 98%; in the data set on Botrytis cinerea [1], 100%; in the data set with Sphaerotheca fuliginea [2] it was 100%; with Puccinia recondita it was 86%; in [3], 81%. Also, the inhibition at 50 µM in the data set with Fusarium proliferatum (setting [7]) came out at 98%; with Fusarium proliferatum (setting [8]), 100%; with Fusarium graminearum (72 h, read-out: % Inhibition des Pilzwachstums bei 50 μM) it was 100%; in the data set on Fusarium graminearum (168 h, read-out: % Inhibition der DON/AcDON produktion bei 50 μM) it was 100%; with Aspergillus parasiticus (50 μM, 7 days at 20° C., read-out: Inhibition der Aflatoxin produktion bei 50 μM), 99%; in the data set on Aspergillus parasiticus (read-out: % Inhibition des Pilzwachstums bei 50 μM), 88%. Moreover, the figures for the pest or weed control at 100 ppm in the data set with Plasmopara viticola and with Venturia inaequalis were 72% and 97%, respectively. The pest or weed control at 250 ppm in the data set on Botrytis cinerea [4] was 100%; in the data set on Pyricularia oryzae it was 95%; with Cochliobolus miyabeanus, 85%. For the same compound, the chromatographic logP in the data set “physchem” (setting [6]) came out at 2.59.
Turning to `NC(=O)c1cc(-c2cn(C3CCCCO3)nc2-c2ccc(F)cc2)ccn1` (stereo not shown) [Compound 93], in the data set with Puccinia recondita, the pest or weed control at 500 ppm was 83%. Further, in “physchem” (setting [6]), the chromatographic logP worked out at 2.46.
Regarding `Cc1cc(F)ccc1-c1c(-c2ccncc2)cnn1C1CCCCO1` (stereo not shown) [[X-5], 4-[5-(4-fluoro-2-methylphenyl)-1-(tetrahydro-2H-pyran-2-yl)-1H-pyrazol-4-yl]pyrid], the “LogP (pH 2.3)” value was found to be 1.40.
In the case of “4-[3-(4-fluorophenyl)-1-isobutyl-1H-pyrazol-4-yl]-N-isopropylpyrimidin-2-amine [[I-h-1]]”, the “logP (pH 2.7)” value (pH 2.7) is 1.81.
Regarding `Cc1cc(-c2c(-c3ccncc3)cnn2C2CCCCO2)ccc1F` (stereo not shown) [[X-7], 4-[5-(4-fluoro-3-methylphenyl)-1-(tetrahydro-2H-pyran-2-yl)-1H-pyrazol-4-yl]pyrid], the “LogP (pH 2.3)” value was 1.47.
Still for that read-out and setting: under `CC(=O)Nc1ccc(-c2c(-c3ccncc3)cnn2C2CCCCO2)cc1` (stereo not shown) [[X-13]] stands 0.97.
Regarding `CC(C)n1ncc(-c2ccncc2)c1-c1c(F)cccc1F` [Compound 10], the pest or weed control at 500 ppm in the data set with Peronospora parasitica was 85%; in the data set with Botrytis cinerea [1], 73%; in the data set with Sphaerotheca fuliginea [2] it was 80%; in data set [3], 95%. In addition, the “% Activity level” value in the data set with Alternaria brassicae is recorded as 85%. In the data set “physchem” (setting [6]), the chromatographic logP was 1.54.
With `CC(C)n1cc(-c2ccnc3ccccc23)c(-c2ccc(F)cc2)n1` [Compound 44], the pest or weed control at 500 ppm in the data set on Peronospora parasitica is 78%; in the data set on Botrytis cinerea [1], 71%; in the data set on Sphaerotheca fuliginea [2], 98%; in the data set on Puccinia recondita, 71%; in data set [3], 81%. In addition, the inhibition at 50 µM was determined as 33% in the data set with Fusarium proliferatum (setting [7]) and 100% with Fusarium proliferatum (setting [8]). The chromatographic logP in the data set “physchem” (setting [6]) is 2.24.
As to `Fc1ccc(-c2nn(CC3CC3)cc2-c2ccncc2)cc1` [Compound 126], the pest or weed control at 500 ppm is 89% in the data set on Peronospora parasitica; 85% with Sphaerotheca fuliginea [2]; 75% with Puccinia recondita; 95% with Sphaerotheca fuliginea [5]; 95% in the data set with Alternaria solani. Further, the pest or weed control at 100 ppm was 81% in the data set on Plasmopara viticola and 98% with Venturia inaequalis. The pest or weed control at 250 ppm in the data set with Botrytis cinerea [4] stood at 100%. Further, in “physchem” (setting [6]), the chromatographic logP was determined as 1.33.
With “N-Benzyl-4-[3-(4-fluorophenyl)-1-isopropyl-1H-pyrazol-4-yl]pyrimidin-2-amine [[I-f-1]]”, the “logP (pH 2.7)” value (pH 2.7) is given as 3.31.
Take “Mixture of 4-bromo-3-(4-fluorophenyl)-1-isopropyl-1H-pyrazole and 4-bromo-5-(4-fluoro-phenyl)-1-isopropyl-1H-pyrazole [[VI-1]]”: for the setting “pH 2.7”, the “logP (pH 2.7)” value worked out at 3.96 and the “logP (pH 2.7), minor isomer” value worked out at 3.68.
`C#CCn1nc(-c2ccc(F)cc2)c(-c2ccncc2)c1C` [Compound 171]: the pest or weed control at 500 ppm in the data set on Peronospora parasitica was 91%; in the data set on Botrytis cinerea [1], 71%; in the data set with Sphaerotheca fuliginea [2], 100%; in the data set on Puccinia recondita it was 94%; in data set [3], 93%; in the data set with Sphaerotheca fuliginea [5], 100%. In the data set with Alternaria solani, the pest or weed control at 500 ppm is 95%. In addition, in the data set with Botrytis cinerea [4], the pest or weed control at 250 ppm was found to be 84%. The compound also returned a chromatographic logP in “physchem” (LogPA) of 2.51.
As for `CCC(C)n1cc(-c2ccncc2)c(-c2c(F)cccc2F)n1` (stereo not shown) [Compound 3], the pest or weed control at 500 ppm turned out to be 97% with Peronospora parasitica, 93% in the data set on Sphaerotheca fuliginea [2] and 95% in data set [3]. Also, the “% Activity level” value in the data set with Alternaria brassicae was determined as 88%. For the same compound, the chromatographic logP in “physchem” (setting [6]) came out at 1.82.

The values above are taken from US20110183978A1, “Phenylpyri(mi)dinylazoles” (Bayer CropScience AG, priority 2009, published 2011).
